ChEMBL document CHEMBL3085757, “Pyrazole scaffold: a remarkable tool in the development of anticancer agents” (Eur J Med Chem, 2013)

Test system: Artemia salina
Experiment: Cytotoxicity against brine shrimp
Type: functional, organism-based

Row | SMILES | IC50 [ppm]
1 | CC1=NN(c2ccc(Br)cc2Br)C(=O)/C1=N\NC(N)=S | 36
2 | CC1=NN(c2ccc(Br)cc2Br)C(=O)C1=O | 36
3 | CC(=O)NNC1=NN(C(C)=O)C2(O1)C(=O)N(c1ccc(Br)cc1Br)N=C2C (centres undefined) | 20
4 | CC(=O)NC1=NN(C(C)=O)C2(S1)C(=O)N(c1ccc(Br)cc1Br)N=C2C (centres undefined) | 19.5
